Test results: PubChem BioAssay AID2060625 (Molecular Pharmacology Branch, DTP, NCI, 2025)

System: 186277-243-T-J2-PDC spheroids with HUVEC/MSC, viability
Test: Anticancer human tumor 186277-243-T-J2-PDC patient-derived colon adenocarcinoma cell line growth inhibition [CLK]
Conditions: for IC50: curve of first compound; for viability, T/C: stronger effect = lower value
Excerpt: A high-throughput screen of multi-cell type tumor spheroids was designed to identify active combinations of […] and targeted small molecules. Complex spheroids include a stromal component modeled by human endothelial cells (HUVEC) and fibroblasts modeled by human mesenchymal stem cells (MSCs). The concentration ranges selected for each drug and investigational agent were based upon clinically achievable concentrations if the clinical Cmax of the agent was known.
Compounds. The drugs and investigational agents: cirtuvivint (SM08502; NSC835563), CC-671 (NSC850746), vemurafenib (NSC761431), tapotoclax (NSC804041), sotorasib (NSC818433), adagrasib (NSC831453), MRTX-1133 (NSC836407), BAY2416964 (NSC825713), copanlisib (NSC816437), inavolisib (NSC800729), abemaciclib (NSC768073), osimertinib (NSC779217), entinostat (NSC756642), eltanexor (KPT-8602, NSC794443), venetoclax (NSC766270), ceralasertib (NSC777638), bortezomib (NSC756655), olaparib (NSC753686), talazoparib (NSC767125), alisertib (NSC759677), peposertib (NSC802822), gemcitabine (NSC613327), 5-fluorouracil (NSC19893), SN-38 (NSC673596), oxaliplatin (NSC266046), paclitaxel (NSC125973), and doxorubicin (NSC123127), were obtained from the National Cancer Institute (NCI) Developmental Therapeutics Program Chemical Repository. The FDA-approved anticancer drug set is available from the Developmental Therapeutics Program at https://dtp.cancer.gov/organization/dscb/obtaining/available plates.htm. […] The stock solutions were prepared in dimethyl sulfoxide (DMSO, Sigma-Aldrich, St. Louis, MO, cat. D2650), except for the platinum complexes which were prepared in saline (Quality Biological, Gaithersburg, MD, cat. 114-055-101), at 800-fold the tested concentration and stored at -70 degrees C prior to their use. All drugs and investigational agents were tested over a range starting from a high concentration at or near the clinical Cmax and decreasing in half-log increments. If the clinical Cmax for an agent had not been determined, the highest concentration tested was 10 microM.
Cell Culture. All cells were maintained in an incubator at 37 degrees C and 5% CO2 with 95% humidity. The PDC lines were cultured according to standard operating procedures established by the NCI PDMR. Briefly, all PDCs were thawed and cultured in Matrigel-coated flasks prepared with a working solution of 1X Ham's F-12 nutrient mix, without supplementation (Invitrogen, Waltham, MA, cat. 11765054), 100 U/mL penicillin-streptomycin (Invitrogen, cat. 15140122), and 2.5% Matrigel (Corning Inc., Corning, NY, cat. 354248) for the first three passages. The 947758-054-R-J2-PDC line was cultured in 6B/Colon 1A media, which includes advanced DMEM/F-12 (Thermo Fisher Scientific, cat. 12634028), 10 mM HEPES (Thermo Fisher Scientific, cat. 15630080), 1X GlutaMAX supplement (Thermo Fisher Scientific, cat. 35050061), 0.1 mg/mL primocin (InvivoGen, cat. ant-pm-2), 10% defined fetal bovine serum, heat inactivated (HyClone Laboratories Inc., cat. SH30070.03HI), 1.25 mM N-Acetyl-L-cysteine (Sigma-Aldrich, cat. A9165), 10 mM nicotinamide (Sigma-Aldrich, cat. N0636), 1X B-27 supplement (Thermo Fisher Scientific, cat. 17504044), 1X N-2 supplement (Thermo Fisher Scientific, cat. 17502048), and 10 microM Y-27632 dihydrochloride (Tocris Bioscience, cat. 1254). The 876862-298-R-J1-PDC was cultured in 6E media, which includes all 6B/Colon 1A media components plus 50% L-WRN conditioned media (ATCC, cat. CRL-3276), 50 ng/mL recombinant human EGF recombinant protein (hEGF; Thermo Fisher Scientific, cat. PHG0311), 10 ng/mL recombinant human fibroblast growth factor 10 (hGFG-10; PeproTech, cat. 100-26), 1 ng/mL recombinant human fibroblast growth factor 2 (hFGF-2; PeproTech, cat. 100-18B), and 1 µM prostaglandin E2 (PGE2; Tocris, cat. 2296). The 227483-062-R1-J1-PDC line was cultured in Panc media, containing all 6E components except hFGF-2, with the addition of 500 nM SB-431542 (Selleckchem, cat. S1067) and 10 nM gastrin (Tocris, cat. 3006). […]

[1] = second compound 0.0316 µM, first compound 0.0316 µM
[2] = second compound 0.0316 µM, first compound 0.1 µM
[3] = second compound 0.0316 µM, first compound 0.316 µM
[4] = second compound 0.0316 µM, first compound 1 µM
[5] = second compound 0.0316 µM, first compound 3.16 µM
[6] = second compound 0.0316 µM, first compound 10 µM
[7] = second compound 0.1 µM, first compound 0.0316 µM
[8] = second compound 0.1 µM, first compound 0.1 µM
[9] = second compound 0.1 µM, first compound 0.316 µM
[10] = second compound 0.1 µM, first compound 1 µM
[11] = second compound 0.1 µM, first compound 3.16 µM
[12] = second compound 0.1 µM, first compound 10 µM
[13] = second compound 0.316 µM, first compound 0.0316 µM
[14] = second compound 0.316 µM, first compound 0.1 µM
[15] = second compound 0.316 µM, first compound 0.316 µM
[16] = second compound 0.316 µM, first compound 1 µM
[17] = second compound 0.316 µM, first compound 3.16 µM
[18] = second compound 0.316 µM, first compound 10 µM
[19] = second compound 1 µM, first compound 0.0316 µM
[20] = second compound 1 µM, first compound 0.1 µM
[21] = second compound 1 µM, first compound 0.316 µM
[22] = second compound 1 µM, first compound 1 µM
[23] = second compound 1 µM, first compound 3.16 µM
[24] = second compound 1 µM, first compound 10 µM
[25] = second compound 3.16 µM, first compound 0.0316 µM
[26] = second compound 3.16 µM, first compound 0.1 µM
[27] = second compound 3.16 µM, first compound 0.316 µM
[28] = second compound 3.16 µM, first compound 1 µM
[29] = second compound 3.16 µM, first compound 3.16 µM
[30] = second compound 3.16 µM, first compound 10 µM
[31] = second compound 10 µM, first compound 0.0316 µM
[32] = second compound 10 µM, first compound 0.1 µM
[33] = second compound 10 µM, first compound 0.316 µM
[34] = second compound 10 µM, first compound 1 µM
[35] = second compound 10 µM, first compound 3.16 µM
[36] = second compound 10 µM, first compound 10 µM
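Note: compound exposure lasted seven days before readout.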
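Throughout, for viability, T/C: 100% = DMSO vehicle control wells.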

Compound: CCCS(=O)(=O)Nc1ccc(F)c(C(=O)c2c[nH]c3ncc(-c4ccc(Cl)cc4)cc23)c1F + CN1CCN(c2cc(C(=O)Nc3cc4cc(-c5cnn(C)c5)ccc4cn3)ccn2)CC1
- IC50 (second compound 0.0316 µM): > 10000 nM
- IC50 (second compound 0.1 µM): > 10000 nM
- IC50 (second compound 0.316 µM): < 31.6 nM
- IC50 (second compound 1 µM): < 31.6 nM
- IC50 (second compound 3.16 µM): < 31.6 nM
- IC50 (second compound 10 µM): < 31.6 nM
- viability, T/C [1]: 109%
- viability, T/C [2]: 104%
- viability, T/C [3]: 103%
- viability, T/C [4]: 97.4%
- viability, T/C [5]: 113%
- viability, T/C [6]: 89.6%
- viability, T/C [7]: 87.4%
- viability, T/C [8]: 82.3%
- viability, T/C [9]: 86.7%
- viability, T/C [10]: 99.4%
- viability, T/C [11]: 95.9%
- viability, T/C [12]: 69.2%
- viability, T/C [13]: 30.5%
- viability, T/C [14]: 30.9%
- viability, T/C [15]: 31.8%
- viability, T/C [16]: 32.1%
- viability, T/C [17]: 22.5%
- viability, T/C [18]: 20.1%
- viability, T/C [19]: 0.48%
- viability, T/C [20]: 0.83%
- viability, T/C [21]: 1.17%
- viability, T/C [22]: 1.25%
- viability, T/C [23]: 0.57%
- viability, T/C [24]: 0.46%
- viability, T/C [25]: 1.11%
- viability, T/C [26]: 1.22%
- viability, T/C [27]: 2.84%
- viability, T/C [28]: 1.64%
- viability, T/C [29]: 2.61%
- viability, T/C [30]: 1.65%
- viability, T/C [31]: 0.65%
- viability, T/C [32]: 0.72%
- viability, T/C [33]: 1.61%
- viability, T/C [34]: 0.95%
- viability, T/C [35]: 1.27%
- viability, T/C [36]: 0.74%

Compound: COC1C=CCC(C)C(C)S(=O)(=O)NC(=O)c2ccc3c(c2)N(CC2CCC21)CC1(CCCc2cc(Cl)ccc21)CO3 (centres undefined) + CN1CCN(c2cc(C(=O)Nc3cc4cc(-c5cnn(C)c5)ccc4cn3)ccn2)CC1
- IC50 (second compound 0.0316 µM): 4120 nM
- IC50 (second compound 0.1 µM): 1120 nM
- IC50 (second compound 0.316 µM): < 31.6 nM
- IC50 (second compound 1 µM): < 31.6 nM
- IC50 (second compound 3.16 µM): < 31.6 nM
- IC50 (second compound 10 µM): < 31.6 nM
- viability, T/C [1]: 102%
- viability, T/C [2]: 97.9%
- viability, T/C [3]: 103%
- viability, T/C [4]: 87.3%
- viability, T/C [5]: 64.4%
- viability, T/C [6]: 3.46%
- viability, T/C [7]: 87.5%
- viability, T/C [8]: 91.2%
- viability, T/C [9]: 74%
- viability, T/C [10]: 54.3%
- viability, T/C [11]: 21.4%
- viability, T/C [12]: 2.36%
- viability, T/C [13]: 25.6%
- viability, T/C [14]: 30.4%
- viability, T/C [15]: 16.9%
- viability, T/C [16]: 5.75%
- viability, T/C [17]: 3.04%
- viability, T/C [18]: 1.3%
- viability, T/C [19]: 1.87%
- viability, T/C [20]: 0.6%
- viability, T/C [21]: 0.97%
- viability, T/C [22]: 0.6%
- viability, T/C [23]: 0.3%
- viability, T/C [24]: 0.24%
- viability, T/C [25]: 1.99%
- viability, T/C [26]: 0.97%
- viability, T/C [27]: 1.2%
- viability, T/C [28]: 0.98%
- viability, T/C [29]: 1.26%
- viability, T/C [30]: 0.58%
- viability, T/C [31]: 0.93%
- viability, T/C [32]: 1.11%
- viability, T/C [33]: 1.01%
- viability, T/C [34]: 0.62%
- viability, T/C [35]: 1.39%
- viability, T/C [36]: 0.26%
